Results from patent US20250197420A1, “MACROCYCLIC COMPOUNDS, COMPOSITIONS, AND METHODS OF USING THEREOF” (Sionna Therapeutics Inc., priority 2022, published 2025).

Molecular target: T1, Purified recombinant NBD1 (Homo sapiens, UniProt P13569)
T1 construct: Purified recombinant NBD1 was produced using previously described methods; made in house
Assay: Aggregation analysis using differential static light scattering (DSLS): thermal stability of NBD1
Format: binding
Details: NBD1 0.2 mg/ml; Tagg of compound well minus average Tagg of DMSO control wells
Method: Purified recombinant NBD1 was produced using previously described methods (A. Schmidt, J. L. Mendoza, P. J. Thomas (2011) Biochemical and Biophysical Approaches to Probe CFTR Structure (365-376) M. D. Amaral, K. Kunzelmann (eds.), Cystic Fibrosis, Methods in Molecular Biology 741, Springer Science+Business Media). The effect of test compounds on thermal stability of NBD1 was evaluated by differential static light scattering (DSLS) using the Harbinger Stargazer-384 instrument (Epiphyte Three, Toronto, Canada). Test compounds were dissolved and diluted to desired concentrations in 100% DMSO. The compounds or DMSO controls (100 nL) were stamped into wells of a […] low volume optical plate (Corning Inc., Corning, NY) using the Echo 555 acoustic liquid handler (Labcyte Inc., San Jose, CA).
NBD1 protein was diluted to 0.2 mg/ml in S200 buffer (50 mM Tris-HCl, 150 mM NaCl, 5 mM MgCl2, 2 mM ATP, 2 mM DTT, pH7.6) containing 1% glycerol. 10 uL of protein solution was aliquoted into the 384-well plate harboring the test compounds and 10 uL mineral oil was overlaid onto the protein solution, using the epMotion robotic liquid handler (Eppendorf North America, Hauppauge, NY). After placing into the Stargazer instrument, the plate was heated at 1° C. per minute to 70° C. Images were captured from 25° C. to 70° C. every 0.5° C. At the end of the experiment run, instrument software integrated image files and analyzed data automatically. A […] regression curve was generated for each well, representing the increase in light scattering over time. A temperature of aggregation (Tagg) was calculated based on the inflection point of the curve. To better compare data across experiments the average Tagg for DMSO control wells was calculated and subtracted from values for wells containing compounds to obtain a “ΔTagg” value. These ΔTagg values reflect stabilizing efficacy of the compounds. As set forth in Table 2 below, an ΔTagg value less than or equal to 5° C. is marked “A”; a value above 5° C. and less than or equal to 10° C. is marked “B”; a value greater than 10° C. and less than or equal to 25° C. is marked “C”.

T1 sequence (P13569 423-646 limits assumed): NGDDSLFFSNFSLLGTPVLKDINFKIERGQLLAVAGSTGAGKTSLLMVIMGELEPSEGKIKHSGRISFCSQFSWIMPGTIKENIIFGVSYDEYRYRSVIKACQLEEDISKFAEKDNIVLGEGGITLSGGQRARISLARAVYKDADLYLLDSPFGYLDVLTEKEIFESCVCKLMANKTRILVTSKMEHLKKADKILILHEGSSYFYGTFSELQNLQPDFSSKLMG

Row | SMILES | DSLS (ΔTagg)
1 | O=C(O)CCc1cccc(C2CCCCCNC(=O)CCc3c(c(F)cc4[nH]ccc34)Oc3ccc(F)c(c3)-c3ncc2[nH]3)c1 (centres unmarked) [Compound 1, 3-[3-(23,29-difluoro-13-oxo-25-oxa-3,12,20,31-tetrazapentacyclo[24.3.1.12,5.016,24.017,21]hentriaconta-1(30),2,4,16,18,21,23,26,28-nonaen-6-yl)phenyl]propanoic acid] | B (a value above 5 °C and less than or equal to 10 °C is marked “B”)
2 | O=C(O)CCc1cccc(C2CCCC(=O)NCCCc3c(c(F)cc4[nH]ccc34)Oc3ccc(F)c(c3)-c3ncc2[nH]3)c1 (centres unmarked) [Compound 11, 3-[3-(22,28-Difluoro-10-oxo-24-oxa-3,11,19,30-tetrazapentacyclo[23.3.1.12,5.015,23.016,20]triaconta-1(28),2,4,15(23),16(20),17,21,25(29),26-nonaen-6-yl)phenyl]propanoic acid] | C (a value greater than 10 °C and less than or equal to 25 °C is marked “C”)
3 | O=C(O)CCc1cccc(C2CCCCCCNC(=O)Cc3c(c(F)cc4[nH]ccc34)Oc3ccc(F)c(c3)-c3ncc2[nH]3)c1 (centres unmarked) [Compound 6, 3-[3-(23,29-Difluoro-14-oxo-25-oxa-3,13,20,31-tetrazapentacyclo-[24.3.1.12,5.016,24.017,21]hentriaconta-1(30),2,4,16,18,21,23,26,28-nonaen-6-yl)phenyl]propanoic acid] | C (a value greater than 10 °C and less than or equal to 25 °C is marked “C”)
4 | CN1CCCCCC(C)(c2cccc(CCC(=O)O)c2)c2cnc([nH]2)-c2cc(ccc2F)Oc2c(F)cc3[nH]ccc3c2CC(C)(C)C1=O (centres unmarked) [Compound 18, 3-[3-(23,29-Difluoro-6,12,14,14-tetramethyl-13-oxo-25-oxa-3,12,20,31-tetrazapentacyclo[24.3.1.12,5.016,24.017,21]hentriaconta-1(30),2,4,16,18,21,23,26,28-nonaen-6-yl)phenyl]propanoic acid] | A (an ΔTagg value less than or equal to 5 °C is marked “A”)
5 | CC1(c2ccccc2)CCC(=O)NCCCCc2c(c(F)cc3[nH]ccc23)Oc2ccc(F)c(c2)-c2ncc1[nH]2 (centres unmarked) [Compound 25, 22,28-Difluoro-6-methyl-6-phenyl-24-oxa-3,10,19,30-tetrazapentacyclo[23.3.1.12,5.015,23.016,20]triaconta-1(29),2,4,15,17,20,22,25,27-nonaen-9-one] | B (a value above 5 °C and less than or equal to 10 °C is marked “B”)
6 | CC1(c2cccc(CCC(=O)O)c2)CCCCC(=O)NCCc2c(c(F)cc3[nH]ccc23)Oc2ccc(F)c(c2)-c2ncc1[nH]2 (centres unmarked) [Compound 16, 3-[3-(22,28-Difluoro-6-methyl-11-oxo-24-oxa-3,12,19,30-tetrazapentacyclo[23.3.1.12,5.015,23.016,20]triaconta-1(29),2,4,15,17,20,22,25,27-nonaen-6-yl)phenyl]propanoic acid] | C (a value greater than 10 °C and less than or equal to 25 °C is marked “C”)
7 | O=C1CCc2c(c(F)cc3[nH]ccc23)Oc2ccc(F)c(c2)-c2ncc([nH]2)C(c2ccccc2)CCCCCN1 (centres unmarked) [Compound 2, 23,29-Difluoro-6-phenyl-25-oxa-3,12,20,31-tetrazapentacyclo[24.3.1.12,5.016,24.017,21]hentriaconta-1(30),2,4,16,18,21,23,26,28-nonaen-13-one] | C (a value greater than 10 °C and less than or equal to 25 °C is marked “C”)
8 | CC1(c2cccc(CCC(=O)O)c2)CCC(=O)NCCCCc2c(c(F)cc3[nH]ccc23)Oc2ccc(F)c(c2)-c2ncc1[nH]2 (centres unmarked) [Compound 24, 3-[3-(22,28-Difluoro-6-methyl-9-oxo-24-oxa-3,10,19,30-tetrazapentacyclo[23.3.1.12,5.015,23.016,20]triaconta-1(29),2,4,15,17,20,22,25,27-nonaen-6-yl)phenyl]propanoic acid] | C (a value greater than 10 °C and less than or equal to 25 °C is marked “C”)
